Consider seven compounds from ChEMBL document CHEMBL5230106, “The wide-spectrum antimicrobial effect of novel N-alkyl monoquaternary ammonium salts and their mixtures; the QSAR study against bacteria” (Eur J Med Chem, 2020).

SMILES strings stand for the structures. Active and inactive are the calls of the source. The calls are words filed in the database; no cut-off is given here.

One data set concerns Human alphaherpesvirus 3. The data set can be described thus: Antiviral activity against Varicella zoster-virus assessed as reduction factor at 0.005 % measured for 5 mins by crystal violet staining based microscopic analysis. The class given is functional.
The test system of a further data set is Clostridioides difficile. Kind of data set: Antibacterial activity against Clostridium difficile at 0.5 % measured after 8 mins by broth microdilution analysis. The class given is functional, organism-based. (In general: Broth dilution looks for growth in wells or tubes with falling amounts of substance.)
A further data set deals with CHO-K1. Kind of data set: Cytotoxicity against CHO-K1 cells assessed as reduction in cell viability incubated for 24 hrs by MTT assay. Type of data set: toxicity, cell-based, Cricetulus griseus. The note with it: chinese hamster, cho-k1, 24 h. In general terms: Formazan colour is commonly taken as a measure of viable cells.
A further data set relates to Fusarium dimerum. Kind of data set: Antifungal activity against Fusarium dimerum EXF-8427 assessed as inhibition of fungal growth at 100 uM measured after 72 hrs. Type of data set: functional, organism-based.
The subject of another data set is Aspergillus versicolor. Kind of data set: Antifungal activity against Aspergillus versicolor EXF-8692 assessed as inhibition of fungal growth at 100 uM measured after 72 hrs. The class given is functional, organism-based.
A further data set concerns Penicillium chrysogenum. Kind of data set: Antifungal activity against Penicillium chrysogenum EXF-1818 assessed as inhibition of fungal growth at 100 uM measured after 72 hrs. Type of data set: functional, organism-based.
For a further data set, the system named is Aspergillus niger. The data set can be described thus: Antifungal activity against Aspergillus niger EXF-10185 assessed as inhibition of fungal growth at 100 uM measured after 72 hrs. The class given is functional, organism-based.

With `CCCCCCCCCCCCCCCC[N+](C)(C)CCCCCCCC.[Br-]`, the “fold change (FC)” value with Human alphaherpesvirus 3 is reported as 3.83.
The same measure, in the same setting: the same measure for `CCCCCCCC[N+](C)(CCCCCCCC)Cc1ccccc1.[Br-]`: 3.84.
Regarding `CCCCCCCCCCCC[N+]1(CCO)CCOCC1.[Br-]`, the outcome with Clostridioides difficile was Active. The Activity entry in the data set on CHO-K1 is on record as “Toxic”.
Regarding `CCCCCCCCCCCCCCCC[n+]1cccc(OC)c1.[Br-]`, the “fold change (FC)” value in the data set on Human alphaherpesvirus 3 stood at 4.68.
Consider `CCCCCCCCCCCCCC[N+]1(CCO)CCOCC1.[Br-]`, for which the Activity result with CHO-K1 is given as “Toxic”.
Turning to `CCCCCCCCCCCCCCCC[N+]1(CCO)CCOCC1.[Br-]`, in the data set on CHO-K1, the Activity entry is recorded as “Toxic”.
Turning to `CCCCCCCCCCCC[N+](C)(C)CCCCCCCC`, the result in the data set on Fusarium dimerum, with Clostridioides difficile, in the data set on Aspergillus versicolor, with Penicillium chrysogenum and in the data set on Aspergillus niger was Active.
